Each structure is given as a SMILES string.

The first data set deals with T1, 5-hydroxytryptamine receptor 1A (Rattus norvegicus, UniProt P19327).
T1 sequence (P19327 whole entry): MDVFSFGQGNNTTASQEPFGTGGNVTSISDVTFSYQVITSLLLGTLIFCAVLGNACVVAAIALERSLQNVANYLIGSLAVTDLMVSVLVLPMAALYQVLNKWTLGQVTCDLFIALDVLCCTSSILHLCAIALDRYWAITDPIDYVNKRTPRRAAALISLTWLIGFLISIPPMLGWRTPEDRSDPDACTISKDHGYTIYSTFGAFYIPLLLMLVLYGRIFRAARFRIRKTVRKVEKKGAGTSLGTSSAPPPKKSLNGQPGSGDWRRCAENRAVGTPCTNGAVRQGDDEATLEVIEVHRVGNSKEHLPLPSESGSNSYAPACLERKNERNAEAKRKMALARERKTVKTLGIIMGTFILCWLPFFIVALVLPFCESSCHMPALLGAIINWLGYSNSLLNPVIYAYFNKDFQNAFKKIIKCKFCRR
Format: cell membranes, Membrane. The conditions noted are these: cho-k1.
With `Nc1ccn([C@@H]2CS[C@H](CO)O2)c(=O)n1` [LAMIVUDINE], the IC50 result is “Not Active”.

Take `O=S(=O)([O-])CCS.[Na+]` [MESNA]: the IC50 result is reported as “Not Active”.

As for `C#C[C@]1(O)CC[C@H]2[C@@H]3CCc4cc(OC)ccc4[C@H]3CC[C@@]21C` [MESTRANOL], the IC50 result is “Not Active”.

`Cc1ncc([N+](=O)[O-])n1CCO` [METRONIDAZOLE]: the IC50 entry was “Not Active”.

Regarding `CC(C)(C(=O)c1cccnc1)c1cccnc1` [METYRAPONE], the IC50 result is recorded as “Not Active”.

As to `Oc1ccc(OCc2ccccc2)cc1` [MONOBENZONE], the IC50 entry is reported as “Not Active”.

Consider `CC(C)(Oc1ccc(C2CCCc3ccccc32)cc1)C(=O)O` (configuration not stated) [NAFENOPIN], for which the IC50 result is recorded as “Not Active”.

In another data set the target is cGMP-specific 3',5'-cyclic phosphodiesterase (Homo sapiens, UniProt O76074). The data set can be described thus: DRUGMATRIX: Phosphodiesterase PDE5 enzyme inhibition (substrate: [3H]cGMP + cGMP). Format: tissue-based. Particulars: platelet; Not Active = under 50% inhibition at 10 µM.
As for `Nc1ccn([C@@H]2CS[C@H](CO)O2)c(=O)n1` [LAMIVUDINE], the IC50 result is reported as “Not Active”.

Consider `O=S(=O)([O-])CCS.[Na+]` [MESNA], for which the IC50 entry is “Not Active”.

As for `C#C[C@]1(O)CC[C@H]2[C@@H]3CCc4cc(OC)ccc4[C@H]3CC[C@@]21C` [MESTRANOL], the IC50 entry was “Not Active”.

As to `Cc1ncc([N+](=O)[O-])n1CCO` [METRONIDAZOLE], the IC50 entry is on record as “Not Active”.

On to `CC(C)(C(=O)c1cccnc1)c1cccnc1` [METYRAPONE], for which the IC50 result was “Not Active”.

Consider `Oc1ccc(OCc2ccccc2)cc1` [MONOBENZONE], for which the IC50 entry is given as “Not Active”.

`CC(C)(Oc1ccc(C2CCCc3ccccc32)cc1)C(=O)O` (configuration not stated) [NAFENOPIN]: the IC50 result is listed as “Not Active”.

For another data set, the target named is D(1A) dopamine receptor (Homo sapiens, UniProt P21728). The data set can be described thus: DRUGMATRIX: Dopamine D1 radioligand binding (ligand: [3H] SCH-23390). Format: cell membranes, Membrane. Particulars: cho; Not Active = under 50% inhibition at 10 µM.
Sequence of D(1A) dopamine receptor (P21728 whole entry): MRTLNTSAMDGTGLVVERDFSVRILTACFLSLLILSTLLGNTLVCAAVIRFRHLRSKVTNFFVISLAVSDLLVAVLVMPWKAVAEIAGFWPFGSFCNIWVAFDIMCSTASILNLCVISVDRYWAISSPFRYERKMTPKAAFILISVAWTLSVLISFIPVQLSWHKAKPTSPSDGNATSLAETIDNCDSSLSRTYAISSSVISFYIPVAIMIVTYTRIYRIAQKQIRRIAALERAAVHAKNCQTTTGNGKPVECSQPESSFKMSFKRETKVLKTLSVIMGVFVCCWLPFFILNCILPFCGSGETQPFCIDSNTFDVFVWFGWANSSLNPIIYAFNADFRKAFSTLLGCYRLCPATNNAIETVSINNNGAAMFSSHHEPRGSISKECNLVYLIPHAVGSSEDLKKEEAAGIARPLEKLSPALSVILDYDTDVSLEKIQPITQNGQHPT
On to `Nc1ccn([C@@H]2CS[C@H](CO)O2)c(=O)n1` [LAMIVUDINE], for which the IC50 result is “Not Active”.

For the molecule `O=S(=O)([O-])CCS.[Na+]` [MESNA], the IC50 result is “Not Active”.

`C#C[C@]1(O)CC[C@H]2[C@@H]3CCc4cc(OC)ccc4[C@H]3CC[C@@]21C` [MESTRANOL]: the IC50 result is listed as “Not Active”.

As for `Cc1ncc([N+](=O)[O-])n1CCO` [METRONIDAZOLE], the IC50 entry is reported as “Not Active”.

Turning to `CC(C)(C(=O)c1cccnc1)c1cccnc1` [METYRAPONE], the IC50 result is given as “Not Active”.

On to `Oc1ccc(OCc2ccccc2)cc1` [MONOBENZONE], for which the IC50 result was “Not Active”.

For `CC(C)(Oc1ccc(C2CCCc3ccccc32)cc1)C(=O)O` (configuration not stated) [NAFENOPIN], the IC50 entry is “Not Active”.

Tested on in the next data set: not listed separately
Nature of the data set: DRUGMATRIX: Sigma2 radioligand binding (ligand: [3H] Ifenprodil). In kind it is cell membranes, Rattus norvegicus, Wistar, Brain, Membrane. Particulars: Not Active = under 50% inhibition at 10 µM.
Turning to `Nc1ccn([C@@H]2CS[C@H](CO)O2)c(=O)n1` [LAMIVUDINE], the IC50 result is given as “Not Active” and the Ki entry is listed as “Not Active”.

Turning to `O=S(=O)([O-])CCS.[Na+]` [MESNA], the IC50 entry is given as “Not Active” and the Ki result is reported as “Not Active”.

Consider `C#C[C@]1(O)CC[C@H]2[C@@H]3CCc4cc(OC)ccc4[C@H]3CC[C@@]21C` [MESTRANOL], for which the IC50 entry was “Not Active” and the Ki result is recorded as “Not Active”.

As to `Cc1ncc([N+](=O)[O-])n1CCO` [METRONIDAZOLE], the IC50 result was “Not Active” and the Ki entry is recorded as “Not Active”.

`CC(C)(C(=O)c1cccnc1)c1cccnc1` [METYRAPONE]: the IC50 entry was “Not Active” and the Ki entry is on record as “Not Active”.

As for `Oc1ccc(OCc2ccccc2)cc1` [MONOBENZONE], the IC50 entry is “Not Active” and the Ki entry is recorded as “Not Active”.

Turning to `CC(C)(Oc1ccc(C2CCCc3ccccc32)cc1)C(=O)O` (configuration not stated) [NAFENOPIN], the IC50 entry is recorded as “Not Active” and the Ki entry is “Not Active”.

The target in the next data set is T2, Cytochrome P450 1A2 (Homo sapiens, UniProt P05177). Further: in other assays of this panel Not Active means under 50% inhibition at 10 µM.
T2 sequence (P05177 whole entry): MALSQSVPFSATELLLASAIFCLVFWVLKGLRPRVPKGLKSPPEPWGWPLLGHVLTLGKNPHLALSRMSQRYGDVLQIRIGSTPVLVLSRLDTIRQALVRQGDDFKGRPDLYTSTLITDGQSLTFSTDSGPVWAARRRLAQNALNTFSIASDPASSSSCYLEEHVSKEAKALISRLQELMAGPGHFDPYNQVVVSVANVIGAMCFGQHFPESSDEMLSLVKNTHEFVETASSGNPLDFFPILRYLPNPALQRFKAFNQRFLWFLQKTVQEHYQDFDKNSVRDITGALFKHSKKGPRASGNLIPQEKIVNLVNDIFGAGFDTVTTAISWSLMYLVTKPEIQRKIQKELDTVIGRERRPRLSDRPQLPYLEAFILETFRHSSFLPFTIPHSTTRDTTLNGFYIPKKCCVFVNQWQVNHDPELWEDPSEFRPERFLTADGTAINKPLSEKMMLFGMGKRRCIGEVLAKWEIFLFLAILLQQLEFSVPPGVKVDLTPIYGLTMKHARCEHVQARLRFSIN
Particulars: bti-tn-5b1-4.
Regarding `Nc1ccn([C@@H]2CS[C@H](CO)O2)c(=O)n1` [LAMIVUDINE], the IC50 result was “Not Active” and the Ki result is reported as “Not Active”.

For `O=S(=O)([O-])CCS.[Na+]` [MESNA], the IC50 result is given as “Not Active” and the Ki result is “Not Active”.

For the molecule `C#C[C@]1(O)CC[C@H]2[C@@H]3CCc4cc(OC)ccc4[C@H]3CC[C@@]21C` [MESTRANOL], the IC50 entry is on record as “Not Active” and the Ki entry is “Not Active”.

Turning to `Cc1ncc([N+](=O)[O-])n1CCO` [METRONIDAZOLE], the IC50 result is recorded as “Not Active” and the Ki result is reported as “Not Active”.

`CC(C)(C(=O)c1cccnc1)c1cccnc1` [METYRAPONE]: the IC50 entry was “Not Active” and the Ki entry is recorded as “Not Active”.

As for `Oc1ccc(OCc2ccccc2)cc1` [MONOBENZONE], the IC50 result is given as “Not Active” and the Ki entry is recorded as “Not Active”.

With `CC(C)(Oc1ccc(C2CCCc3ccccc32)cc1)C(=O)O` (configuration not stated) [NAFENOPIN], the IC50 result is on record as “Not Active” and the Ki result is reported as “Not Active”.

Tested on in another data set: not listed separately
The data set can be described thus: DRUGMATRIX: Tumor Necrosis Factor (TNF), Non-Selective radioligand binding (ligand: [125I] TNF-alpha). Format: cell membranes, Membrane. Particulars: u-937; Not Active = under 50% inhibition at 10 µM.
Turning to `Nc1ccn([C@@H]2CS[C@H](CO)O2)c(=O)n1` [LAMIVUDINE], the IC50 entry is given as “Not Active” and the Ki result was “Not Active”.

Turning to `O=S(=O)([O-])CCS.[Na+]` [MESNA], the IC50 entry is listed as “Not Active” and the Ki entry is “Not Active”.

`C#C[C@]1(O)CC[C@H]2[C@@H]3CCc4cc(OC)ccc4[C@H]3CC[C@@]21C` [MESTRANOL]: the IC50 entry was “Not Active” and the Ki entry is given as “Not Active”.

Take `Cc1ncc([N+](=O)[O-])n1CCO` [METRONIDAZOLE]: the IC50 entry was “Not Active” and the Ki entry was “Not Active”.

`CC(C)(C(=O)c1cccnc1)c1cccnc1` [METYRAPONE]: the IC50 result is listed as “Not Active” and the Ki result is reported as “Not Active”.

As to `Oc1ccc(OCc2ccccc2)cc1` [MONOBENZONE], the IC50 entry was “Not Active” and the Ki result is listed as “Not Active”.

In the case of `CC(C)(Oc1ccc(C2CCCc3ccccc32)cc1)C(=O)O` (configuration not stated) [NAFENOPIN], the IC50 result was “Not Active” and the Ki result was “Not Active”.

The target of the next data set is Delta-type opioid receptor (Homo sapiens, UniProt P41143). Format: cell membranes, HEK293, Membrane. Particulars: hek293. Further: in other assays of this panel Not Active means under 50% inhibition at 10 µM.
Sequence of Delta-type opioid receptor (P41143 whole entry): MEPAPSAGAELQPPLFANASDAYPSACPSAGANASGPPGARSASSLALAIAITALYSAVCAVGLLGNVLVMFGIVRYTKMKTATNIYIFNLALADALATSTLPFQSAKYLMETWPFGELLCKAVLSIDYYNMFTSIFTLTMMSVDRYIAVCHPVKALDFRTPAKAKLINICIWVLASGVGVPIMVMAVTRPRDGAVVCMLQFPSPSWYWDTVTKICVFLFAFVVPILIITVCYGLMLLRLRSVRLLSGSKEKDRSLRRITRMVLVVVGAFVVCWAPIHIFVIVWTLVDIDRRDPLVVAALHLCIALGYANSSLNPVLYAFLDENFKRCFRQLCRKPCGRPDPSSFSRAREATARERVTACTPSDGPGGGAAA
On to `Nc1ccn([C@@H]2CS[C@H](CO)O2)c(=O)n1` [LAMIVUDINE], for which the IC50 entry is given as “Not Active”.

For the molecule `O=S(=O)([O-])CCS.[Na+]` [MESNA], the IC50 entry was “Not Active”.

Consider `C#C[C@]1(O)CC[C@H]2[C@@H]3CCc4cc(OC)ccc4[C@H]3CC[C@@]21C` [MESTRANOL], for which the IC50 result is “Not Active”.

Consider `Cc1ncc([N+](=O)[O-])n1CCO` [METRONIDAZOLE], for which the IC50 result was “Not Active”.

In the case of `CC(C)(C(=O)c1cccnc1)c1cccnc1` [METYRAPONE], the IC50 entry is “Not Active”.

As for `Oc1ccc(OCc2ccccc2)cc1` [MONOBENZONE], the IC50 entry was “Not Active”.

Turning to `CC(C)(Oc1ccc(C2CCCc3ccccc32)cc1)C(=O)O` (configuration not stated) [NAFENOPIN], the IC50 result is listed as “Not Active”.

The next data set has as its target T3, Alpha-1A adrenergic receptor (Rattus norvegicus, UniProt P43140).
T3 sequence (P43140 whole entry): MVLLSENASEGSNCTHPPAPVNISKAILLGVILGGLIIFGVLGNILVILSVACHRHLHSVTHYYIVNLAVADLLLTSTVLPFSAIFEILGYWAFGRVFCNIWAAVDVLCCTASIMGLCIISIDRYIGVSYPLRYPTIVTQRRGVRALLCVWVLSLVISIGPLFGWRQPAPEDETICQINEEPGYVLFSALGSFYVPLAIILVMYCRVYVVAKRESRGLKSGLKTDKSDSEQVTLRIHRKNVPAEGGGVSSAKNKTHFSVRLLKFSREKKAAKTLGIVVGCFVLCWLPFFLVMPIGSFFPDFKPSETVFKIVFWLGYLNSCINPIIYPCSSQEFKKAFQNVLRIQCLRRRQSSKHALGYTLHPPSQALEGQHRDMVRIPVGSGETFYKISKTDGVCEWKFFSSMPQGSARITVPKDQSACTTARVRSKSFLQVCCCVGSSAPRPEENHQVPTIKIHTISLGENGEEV
The data set can be described thus: DRUGMATRIX: Alpha-1A adrenergic receptor radioligand binding (ligand: prazosin). Format: cell membranes, Wistar, Submaxillary gland, Membrane. The conditions noted are these: Not Active = under 50% inhibition at 10 µM.
For `Nc1ccn([C@@H]2CS[C@H](CO)O2)c(=O)n1` [LAMIVUDINE], the IC50 entry is listed as “Not Active”.

As to `O=S(=O)([O-])CCS.[Na+]` [MESNA], the IC50 entry is listed as “Not Active”.

As to `C#C[C@]1(O)CC[C@H]2[C@@H]3CCc4cc(OC)ccc4[C@H]3CC[C@@]21C` [MESTRANOL], the IC50 entry was “Not Active”.

With `Cc1ncc([N+](=O)[O-])n1CCO` [METRONIDAZOLE], the IC50 entry is reported as “Not Active”.

`CC(C)(C(=O)c1cccnc1)c1cccnc1` [METYRAPONE]: the IC50 entry is recorded as “Not Active”.

As to `Oc1ccc(OCc2ccccc2)cc1` [MONOBENZONE], the IC50 entry is reported as “Not Active”.

As to `CC(C)(Oc1ccc(C2CCCc3ccccc32)cc1)C(=O)O` (configuration not stated) [NAFENOPIN], the IC50 entry was “Not Active”.

The record behind these values is ChEMBL document CHEMBL1909046, “DrugMatrix in vitro pharmacology data”.
